According to patent publication US12398123B2, “Chemical inhibition of the E3 ligase subunit FBXO7 confers neuroprotection and anti-inflammatory activity by stabilizing mitochondria” (University of Pittsburgh—Of the Commonwealth System of …, priority 2017, dated 2025):
Peptide text beside a SMILES is read from it. * marks the point of attachment. Cbz = O=C(OCc1ccccc1)*

Assays:
SH-SY5Y cells = experiment: MPP+ elicited injury in SH-SY5Y cells, AlamarBlue cell viability; details: 5 μg/ml with MPP+ for 24 h, relative to BC1465
H9C2 cells [1] = experiment: tBHP-induced mitochondrial injury in H9C2 cells, MitoTracker Red flow cytometry; details: 100 ng/ml 16 h, tBHP 100 μM 45 min
Pink1 [2] = experiment: Pink1 protein stability (CHX chase) in BEAS-2B cells; details: 1 μg/ml for 16 h, then CHX 40 μg/ml
[3] = tested on: cytokine release from human lung explants; experiment: human lung slices challenged with LPS: TNFα ELISA of supernatant; details: compound 4 h, then LPS 100 ng/ml 4 h
[4] = intracerebral ventricular infusion in mice for 2 weeks (tolerability); type: in vivo, mouse; details: 10 ug/ml via intracerebral ventricular infusion for 2 weeks
Experimental: BC 1464 was administered in artificial CSF with DMSO by intracerebroventricular pump to C5bl/6 mice.

primary fibroblasts = experiment: 6-OHDA model in primary fibroblasts; details: 6-OHDA 300 M (unit prefix printed as image), 19 h
[5] = tested on: TNF release from human PBMCs; experiment: LPS stimulated TNF secretion from PBMCs (ELISA); type: cell-based; details: 2 h pretreatment, then LPS 10 ng/ml 4 h
[6] = tested on: late neural progenitor cells differentiated from a human iPSC line; experiment: DMSO-induced cell death in late neural progenitor cells from an SNCA triplication iPSC line; type: cell-based; details: 5 ng/mL for 1 wk
Experimental: Methods. Late neural progenitor cells were derived from an iPSC line from a PD patient with SNCA gene triplication, as previously described (D'Aiuto et al. Organogenesis 10(4): 365-377). […] Images were acquired with a 40× oil objective (1.30 NA) on an Olympus IX71 microscope using Olympus CellSens V1.17 with a DP80 camera. Cell death was assessed by counting condensed/fragmented nuclei. Results.

Pink1 [7] = experiment: target validation: Pink1 levels in BEAS-2B cells with control or Fbxo7 siRNA; details: Fbxo7 siRNA 3 days, compound 18 h
H9C2 cells [8] = experiment: CCCP triggered mitochondrial injury in H9C2 cells, Mitosense Red and Annexin V flow cytometry; type: cell-based, rat; details: 100 ng/ml 16 h, CCCP 20 μM 2 h; CCCP alone 17.2%
PINK1 [9] = experiment: human lung slices challenged with LPS: Pink1 immunoblotting; details: compound 4 h, then LPS 100 ng/ml 4 h
H9C2 cells [10] = experiment: mitochondrial membrane potential after CCCP in H9C2 cells, JC1 staining, confocal microscopy; details: 100 ng/ml 16 h, CCCP 20 μM 2 h
PINK1 [11] = type: cell-based, human; details: SHSY5Y PINK1-Flag, compound 3 h, cycloheximide 10 μg/ml 1 h
From the text: FIGS. 7A-7H. […] FIG. 7A. […] FIG. 7B. […] FIG. 7C. […] FIG. 7D-7E. […] Scale bar=100 μm.

[12] = tested on: P. aeruginosa (PA103) lung inflammatory injury; experiment: experimental pneumonia: mice given PA103 i.t.
primary cortical neurons = experiment: morphological injury of GFP-transfected primary cortical neurons challenged with MPP+; details: MPP+ 24 h
Pink1 [13] = experiment: Pink1 protein decay in BEAS-2B cells with proteasomal or lysosomal inhibitors and CHX; type: cell-based; details: 30 min pretreatment (MG132 20 μM, leupeptin 100 μM), then CHX 40 μg/ml
Experimental: FIGS. 1A-1E. Fbxo7 mediates Pink1 polyubiquitylation and proteasomal degradation. FIG. 1A. BEAS-2B cells were pretreated with MG132 (20 μM), leupeptin (100 μM), or diluent (control, CON) for 30 min, and then were treated with CHX (40 μg/ml) to assay protein decay. The cell lysates were obtained at the indicated time points for immunoblotting. FIG. 1B. BEAS-2B cells were nucleofected with V5-tagged Fbxo7 plasmid at indicated amounts and incubated for 48 h, the whole cell lysates were subjected to immunoblotting. FIG. 1C. BEAS-2B cells were nucleofected with 4 individual shRNAs respectively and analyzed by immunoblotting. FIG. 1D. BEAS-2B cells were nucleofected with control shRNA or Fbxo7 shRNA for 72 h, and then treated with CHX (40 μg/ml). The cells were collected at indicated time points for half-life analysis. FIG. 1E. In vitro ubiquitylation assays were performed with synthesized Pink1 combined with indicated recombinant proteins.
Cell Culture and Transfection.
Pink1 undergoes rapid proteolysis in cells, and the cleaved Pink1 fragment may be degraded through the N-end rule pathway. To test if full length Pink1 is subjected to ubiquitin mediated degradation, we evaluated the ability of proteasomal or lysosomal inhibitors to regulate stability of the kinase. […]

[14] = 5 mg/kg intraperitoneal, 18 h, compared to vehicle control or BC1465

Structure (SMILES): O=C(CCCn1c(SCC(=O)NCC2CCCO2)nc2ccccc2c1=O)NCc1ccccc1 (stereo not drawn) [BC1464]
- MPP+ elicited injury (cell viability) (SH-SY5Y cells): significantly decreased MPP+ elicited injury
- protection from tBHP-induced mitochondrial injury (H9C2 cells [1]): largely protected mitochondria from oxidative stress
- mitochondrial injury (damaged mitochondria) after tBHP (H9C2 cells [1]; tBHP with vehicle 45.3%, untreated 4.1%): 26.1%
- Pink1 protein stability upon inhibiting protein synthesis (Pink1 [2]): largely stabilized Pink1
- cytokine release in response to endotoxin [3]: inhibit cytokine release
- toxicity / survival [4]: no overt toxicity
- protection in the 6-OHDA model (primary fibroblasts): conferred protection
- reduction of LPS stimulated release of TNF ([5]; 1 ng/ml): ~37%
- LPS stimulated release of TNF ([5]; 10 ng/ml): potently blocked
- toxicity elicited by DMSO (condensed/fragmented nuclei) [6]: prevented toxicity elicited by DMSO
- Pink1 levels after Fbxo7 siRNA treatment (Pink1 [7]): not observed
- CCCP damaged (depolarized) mitochondria (H9C2 cells [8]): 10.5%
- Pink1 protein levels in human lung explants (PINK1 [9]): selectively increase Pink1 protein levels
- mitochondrial membrane potential disrupted by CCCP (JC1) (H9C2 cells [10]): maintains the mitochondrial membrane potential
- PINK1 expression in the presence of cycloheximide (PINK1 [11]): stabilizes PINK1 expression
- lavage bacteria counts ([12]; 5 mg/kg intraperitoneal at time of PA103, 18 h): no effect
- lavage cell numbers [12, 14]: significantly decreased
- lavage cytokine levels [12, 14]: significantly decreased
- lavage protein [12, 14]: significantly decreased
- retraction and simplification of the dendritic arbor (primary cortical neurons; 5 μg/ml, versus BC1465): protect against retraction and simplification of the dendritic arbor
- cell death in primary cortical neurons (primary cortical neurons): reduce cell death

Structure (SMILES): CC(=O)N[C@@H](CC(C)C)C(=O)N[C@@H](CC(C)C)C(=O)N[C@H](C=O)CCCNC(=N)N [leupeptin]
- Pink1 accumulation / turnover (Pink1 [13]): little impact on basal Pink1 turnover

Structure (SMILES): CC(C)C[C@@H](C=O)NC(=O)[C@H](CC(C)C)NC(=O)[C@H](CC(C)C)NC(=O)OCc1ccccc1 [MG132] (Cbz-Leu-Leu-Leu-aldehyde)
- Pink1 accumulation / turnover (Pink1 [13]): accumulated not only the Pink1 fragment, but also full length Pink1

Structure (SMILES): N#Cc1ccccc1Cn1c(=O)n(CCCC(=O)NCc2ccc3c(c2)OCO3)c(=O)c2ccccc21 [BC1465, reference compound]
- Pink1 protein stability upon inhibiting protein synthesis (Pink1 [2]): no effect on Pink1 protein stability
